≈ marks a conversion by molar mass, not a printed value.

This note sets out measurements from patent US4031235A, “Insecticidal substituted acetate compounds” (Sumitomo Chemical Company, Limited, priority 1972, dated 1977).

The assay relates to Larvae of Mosquito (Culex pipiens). In words: Insecticidal activity on larvae of mosquito (Experimental Example 2). Type of assay: in vivo. The following applies: 24 h, read-out: LC50 (50% lethal concentration). Here is the method: An emulsifiable concentrate was prepared by blending each of the compounds (1) to (300) of the present invention, xylol and Sorpol SM-200 (trade name; manufactured by Toho Chemical Co., Ltd.) in a proportion of 25%, 50% and 25% (by weight), respectively. 20 to 25 day-old rice plants after seeding were grown in pots and sprayed with each 300-fold dilute solution of the emulsifiable concentrates thus prepared and a 300-fold dilute solution of carbaryl 30% wettable powder diluted with water as a control commercial agent in an amount of 10 ml/pot in each case and then the pots were covered by a cylindrical metal net. 15 small brown planthoppers (Delphacodes striatella Fallen) per group were released in each of the pots treated with carbaryl wettable powder, and compound (1) to (21) and (102) to (110), while 15 green rice leafhopper (Nephotettix bipuntatus cincticeps Uhler) per group were released in each of the pots treated with the carbaryl wettable powder and compounds (22) to (101) and (111) to (300).
Of the emulsifiable concentrates prepared in Experimental Example 1, each of those prepared from the compounds of Table 1 below was diluted with water to each of test concentrations and a 200 ml portion thereof was added to a 300 ml volume beaker. 30 larvae of mosquito per group were released in each of the beaker and allowed to stand for 1 day. Survival was observed and a LC50 (50% lethal concentration) was determined by calculating a percent killing in each case. As a control, lindane emulsifiable concentrate was used.
As for `C=C(C)C(C(=O)OCc1csc(Cc2ccccc2)c1)c1ccc(C)cc1` (stereo not drawn) [compound 112], the LC50 was found to be 4.6 ng/mL (≈ 0.0122 µM). For `C=C(C)C(C(=O)OCc1cccc(Oc2ccccc2)c1)c1cccc(Cl)c1` (stereo not drawn) [compound 120, 3'-Phenoxybenzyl-α-isopropenyl-3-chlorophenylacetate] the value was 4 ng/mL (≈ 0.0102 µM); for `Cc1ccc(C(C(=O)OC(C#N)c2cccc(Oc3ccccc3)c2)C(C)C)cc1` (stereo not drawn) [compound 227], 1.9 ng/mL (≈ 0.00476 µM); for `Cc1ccc(C(C)C(=O)OCc2coc(Cc3ccccc3)c2)cc1` (stereo not drawn) [compound 181], 82 ng/mL (≈ 0.245 µM). For `Cl[C@H]1[C@H](Cl)[C@@H](Cl)[C@@H](Cl)[C@H](Cl)[C@H]1Cl` [Lindane, lindane, reference compound] the value was 220 ng/mL (≈ 0.756 µM); for `C=C(C)C(C(=O)OCc1coc(Oc2ccccc2)c1)c1ccc(C)cc1` (stereo not drawn) [compound 115, 5'-Phenoxy-3'-furylmethyl-α-isopropenyl-4-methyl phenylacetate], 5 ng/mL (≈ 0.0138 µM); for `CCc1ccc(C(C(=O)OCc2coc(Cc3ccccc3)c2)C(C)C)cc1` (stereo not drawn) [compound 214], 12.7 ng/mL (≈ 0.0337 µM). Then `CCC(C(=O)OCc1coc(Cc2ccccc2)c1)c1cccc(C)c1` (stereo not drawn) [compound 104, 5'-Benzyl-3'-furylmethyl-α-ethyl-3-methylphenylacetate], with 12 ng/mL (≈ 0.0344 µM); and `Cc1ccc(C(C)C(=O)OCc2cccc(Oc3ccccc3)c2)cc1` (stereo not drawn) [compound 183], with 88.5 ng/mL (≈ 0.255 µM); and `Cc1cccc(C(C(=O)OCc2coc(Cc3ccccc3)c2)C(C)C)c1` (stereo not drawn) [compound 105, 5'-Benzyl-3'-furylmethyl-α-isopropyl-3-methylphenylacetate], with 10.5 ng/mL (≈ 0.029 µM).

Regarding `CCC(C(=O)OCc1coc(Cc2ccccc2)c1)c1ccc(C)cc1` (stereo not drawn) [compound 102, 5'-Benzyl-3'-furylmethyl-α-ethyl-4-methylphenylacetate], the LC50 amounted to 9.5 ng/mL (≈ 0.0273 µM). As to `CC(C)C(C(=O)OC(C#N)c1cccc(Oc2ccccc2)c1)c1ccc(Cl)cc1` (stereo not drawn) [compound 231], the LC50 stood at 1.4 ng/mL (≈ 0.00333 µM).

For the molecule `CCC(C(=O)OCc1coc(Cc2ccccc2)c1)c1ccccc1C` (stereo not drawn) [compound 110, 5'-Benzyl-3'-furylmethyl-α-ethyl-2-methylphenylacetate], the LC50 was 12.5 ng/mL (≈ 0.0359 µM). Then `Cc1ccc(C(C(=O)OCc2coc(Cc3ccccc3)c2)C(C)C)cc1` (stereo not drawn) [compound 103, 5'-Benzyl-3'-furylmethyl-α-isopropyl-4-methylphenylacetate], with 9.2 ng/mL (≈ 0.0254 µM); and `C=C(C)C(C(=O)OCc1cccc(Oc2ccccc2)c1)c1ccc(CC)cc1` (stereo not drawn) [compound 126, 3'-Phenoxybenzyl-α-isopropenyl-4-ethylphenylacetate], with 5.6 ng/mL (≈ 0.0145 µM); and `C=C(C)C(C(=O)OCc1coc(Cc2ccco2)c1)c1ccc(C)cc1` (stereo not drawn) [compound 113, 5'-Furfuryl-3'-furylmethyl-α-isopropenyl-4-methylphenylacetate], with 5.3 ng/mL (≈ 0.0151 µM). For `CSc1ccc(C(C(=O)OCc2cccc(Oc3ccccc3)c2)C(C)C)cc1` (stereo not drawn) [compound 298] the value was 9.7 ng/mL (≈ 0.0239 µM); for `CCc1ccc(C(C(=O)OCc2cccc(Oc3ccccc3)c2)C(C)C)cc1` (stereo not drawn) [compound 215], 13.2 ng/mL (≈ 0.034 µM). Then `C=CCC1=C(C)C(OC(=O)C(CC)c2ccco2)CC1=O` (stereo not drawn) [compound 16, 2'-Allyl-3'-methyl-2'-cyclopentene-1'-one-4"-yl-α-ethyl-2-furylacetate], with 1.4 ng/mL (≈ 0.00486 µM); and `C=C(C)C(C(=O)OCc1coc(Cc2ccccc2)c1)c1ccc(C)cc1` (stereo not drawn) [compound 128, 5'-Benzyl-3'-furylmethyl-α-isopropenyl-4-methylphenylacetate], with 4.7 ng/mL (≈ 0.013 µM); and `C#CCc1ccc(COC(=O)C(CC)c2ccccc2)cc1` (stereo not drawn) [compound 10, 4'-Propargylbenzyl-α-ethylphenylacetate], with 3 ng/mL (≈ 0.0103 µM).
